Laboratory results taken from US20250281496A1, “METHODS OF TREATING NEUROPATHY USING FORETINIB AND COMPOSITIONS THEREOF” (INDIANA UNIVERSITY RESEARCH AND TECHNOLOGY CORPORATION, priority 2022, published 2025).
“Also recorded” adds a separate entry of the source.

What was measured:
[1] = tested on: experimental diabetic neuropathy; assay: Three-dimensional assessment of cutaneous innervation (volumetric nerve fiber density) in STZ-diabetic mice; assay type: in vivo; settings: 30 mg/kg oral daily; 5 weeks post-STZ; non-treated 44.9%, vehicle 37.8%
Protocol: In total, 20 mice were injected with 100 mg/kg bodyweight of streptozotocin (STZ, […], Sigma Aldrich) in 0.1M citrate buffer (pH 4.5) on two consecutive days respectively, to induce diabetes type 1^27. Prior to the first injection and in weekly intervals thereafter, all animals were weighted and underwent tail prick blood sugar measurements using a clinical grade monitoring system (Contour One, Ascensia Diabetes Care, Mississauga, Ontario) as previously described. Mice were considered diabetic when blood glucose was at least 15 mmol/L (270 mg/dl). Prior to diabetes induction the mice were block randomized into experimental groups (n=10 Foretinib treatment, n=5 vehicle treatment, n=5 non-treated diabetic control). An additional 5 non-diabetic animals served as a healthy control. Foretinib treatments started 1-week post-diabetes induction. Foretinib was prepared fresh daily by dissolving 6 mg Foretinib in 1 ml of 1% (Hydroxypropyl)-methyl cellulose (09963, Sigma Aldrich) and 0.2% sodium dodecyl sulfate ([…], Sigma Aldrich) in sterile H2O. […] Cutaneous nerve fibers were semiautomatically traced using batch processing with consistent fluorescence intensity thresholds across the entire data set. Volumetric nerve fiber density was determined as total nerve fiber volume per skin tissue volume for an 830×830×200 μm region of interest.

Rat sympathetic neurons = assay: NGF withdrawal in compartmented cultures of sympathetic neurons; assay type: cell-based
Protocol: A) Rat sympathetic neurons grown in compartmented cultures for one week in the presence of NGF were switched into the indicated conditions for 48 h and immunostained for βIII-tubulin (white). Schematics on the left show the configurations used. In the top panels, NGF was maintained in all compartments. In the center and bottom panels, NGF was withdrawn from all compartments. At the bottom panel and 500 nM foretinib (Foret) added to one of the sides and the center compartment. Fluorescence images show βIII-tubulin-positive axons in the sides compartment. At the right, enlarged images of the axons per condition. While the NGF deprived neurons degenerated (axonal beading and degradation in the central panel), Foretinib supplemented (lower panel) axons kept growing Red arrow at the top of the image indicates the distance of the axonal extension during 48 h since NGF withdrawal. Size bar: […].B) MNs were differentiated from healthy human iPS (Line ID 1016A)^62 as described^63. 3 day old MNs were treated with either 1 μM of Thapsigargin (Thaps) or 1 μM Tunicamycin (Tuni) and/or with either 0.5 uM of Foretinib. […] C) Quantitative representation of the results as in B. Error bars represent standard error; *p<0.05; ***p<0.005; t-test. […] E) Quantitative representation of changes in mouse body weight in dependence of the indicated IP daily doses of Foretinib. […]

[2] = tested on: wt and Sod1^G93A cultured mouse MN; assay: Survival of trophic factor-deprived cultured mouse motor neurons; assay type: cell-based
[3] = Pharmacokinetics: blood plasma concentration after single IP injection, mass spectrometry; assay type: in vivo, mice
Protocol: A) Quantitative representation of changes in mouse body weight in dependence of the indicated IP daily doses of Foretinib (n=2 per dose). B) Changes in mouse blood plasma concentration of 5 mg/kg IP injected Foretinib during 48 hours after a single injection (n=3).
It is expected that Foretinib will protect against the diabetes-induced loss of terminal axons and ensheathing SC. In our previous study, 30 mg/kg of foretinib was administered via daily gavage for a course of 5 weeks. Although reported as non-toxic, at this dose the drug, along with a strong neuroprotective effect, caused lethargic behavior, ruffled fur and weight loss requiring early termination of the experiment. Due to the substantial prevalence of type 2 diabetes, we will examine the effect of foretinib treatment on type 2 diabetic mice (db/db). To define the maximal tolerable dose, we treated wt mice by daily intraperitoneal (IP) injection of several various dosages of foretinib for 20 days, while assessing the mice weight and behavior. […] Next, to define the pharmacokinetic (PK) characteristics of the drug, we performed a mass spectrometry analysis of blood samples from wt mice treated with 5 mg/kg (n=3 mice per dose per time point). We observed that IP injection of 5 mg/kg of foretinib generated nearly 100 ng/ml blood concentration during first 4 hours, declining by 4 ng/ml/hour (FIG. 7B).

[4] = tested on: sympathetic and sensory neurons; assay: Neuroprotection in primary culture of sympathetic and sensory neurons (trophic deprivation); assay type: cell-based

COc1cc2c(Oc3ccc(NC(=O)C4(C(=O)Nc5ccc(F)cc5)CC4)cc3F)ccnc2cc1OCCCN1CCOCC1 [Foretinib, N1-[3-Fluoro-4-({6-methoxy-7-[3-(morpholin-4-yl)propoxy]quinolin-4-yl}oxy)phenyl]-N′1-(4-fluorophenyl)cyclopropane-1,1-dicarboxamide]
cutaneous nerve fiber density as % of non-diabetic reference [1]: 67.3% | axonal growth after NGF withdrawal (Rat sympathetic neurons; 500 nM foretinib in center and one side compartment, 48 h, preliminary n=2): induced axonal growth, similarly to the NGF containing cultures; also recorded: greater axonal length of the neurons than neurons cultured with NGF | cell body and axonal survival after NGF withdrawal (Rat sympathetic neurons; 500 nM foretinib, 48 hours post NGF withdrawal): supported cell bodies and axonal survival | survival of trophic factor-deprived motor neurons [2]: induced survival | decline of blood concentration ([3]; 5 mg/kg IP single injection, after first 4 hours): 4 ng/mL/h | blood concentration during first 4 hours ([3]; 5 mg/kg IP single injection, wt mice, n=3): ~100 ng/mL | blood concentration expressed in molar units ([3]; 5 mg/kg IP, conversion of 100 ng/ml): 160 nM | effective neuroprotective concentration [4]: > 100 nM
